Results taken from ChEMBL document CHEMBL1124124, “Synthesis and interaction with uridine phosphorylase of 5'-deoxy-4',5-difluorouridine, a new prodrug of 5-fluorouracil” (J Med Chem, 1988).

What was measured:
L1210 = assay: Inhibition of cell growth of L1210 mouse Leukemia cells; type: functional, cell-based
[1] = Half life at pH 1; type: ADME; details: buffer
[2] = Half life at pH 7.5; type: ADME; details: buffer
[3] = Half life at pH 7.5; Not detectable hydrolysis after 7 days; type: ADME; details: buffer, pH 7.5, 168 h

Row | Structure (SMILES) | IC50 (L1210) [nM] | half-life [1] [h] | half-life [2] [h] | T1/2 [3]
1 | C[C@@]1(F)OC(n2cc(F)c(=O)[nH]c2=O)[C@H](O)[C@@H]1O (some centres not stated) | 300 | 0.5 | 12 | 
2 | C[C@H]1O[C@@H](n2cc(F)c(=O)[nH]c2=O)[C@H](O)[C@@H]1O [DOXIFLURIDINE] | 3000 | 250 |  | No detectable hydrolysis
3 | O=c1[nH]cc(F)c(=O)[nH]1 [FLUOROURACIL] | 300 |  |  | 
